Values after ≈ are worked out from the molar mass of the structure shown.
Columns and labels:
[1] = High-Throughput Solubility Assay; type: physicochemical; details: for solubility at 24 h: kinetic from dmso stock, pH 7, aqueous potassium phosphate buffer, nominal 200 μM, 24 h at room temperature
Procedure: High-Throughput Solubility Assay
A nominal 200 μM suspensions/solutions of a compound of formula (I) in aqueous potassium phosphate buffer at pH=7 and aqueous citric acid buffer at pH=3 were prepared on a “Multiscreen-HTS”, 0.2 μm filter plate (Millipore, Billerica, Mass.). These solutions were stirred for 10 min and stored for 24 h at room temperature to pre-saturate the membrane filter and to reach a “pseudo-thermodynamic solubility”. Then the plate was put on a 500 μL 96 multiwell plate containing 200 μL of acetonitrile in each well and centrifuged at 2000 rpm for 5 minutes. The so obtained solutions were then analyzed simultaneously by HPLC-UV with standard solutions for quantification.

[2] = test system: A2780 ovarian carcinoma cells; assay: In Vitro Cell Proliferation Assay (A2780); type: cell-based; details: Homo sapiens, 72 hours exposure, CellTiterGlo
Procedure: (§1) In Vitro Cell Proliferation Assay
(§2) To evaluate the antiproliferative activity of a compound of formula (I) the following human cell lines were used: A2780 ovarian and MCF-7 breast carcinoma; TT and MZ-CRC-1 medullary thyroid carcinoma, harboring a mutated RET-C634W and RET-M918T receptor respectively, LC-2/ad Non Small Cell Lung Carcinoma, expressing the CCDC6-RET fusion gene product. Exponentially growing cells were seeded and incubated at 37° C. in a humidified 5% C02 atmosphere using appropriate medium supplemented with 10% Fetal Bovine Serum. 24 hours following cell plating, scalar doses of the compounds dissolved in 0.1% DMSO were added to the medium and cells were exposed to drugs for either 72 hours (MCF-7 and A2780) or 144 hours (TT, MZ-CRC-1 and LC-2/ad), according to their different proliferation rate. At the end of treatment, cell proliferation was determined by an intracellular ATP monitoring system (CellTiterGlo—Promega), following manufacturer's instructions, and using an Envision instrument (PerkinElmer) as reader. Data obtained from compound versus vehicle treated cells were compared using Assay Explorer (Symyx Technologies Inc) software. IC50 values were calculated using sigmoidal interpolation curve fitting.

[3] = test system: TT medullary thyroid carcinoma cells, harboring a mutated RET-C634W receptor; assay: In Vitro Cell Proliferation Assay (TT); type: cell-based; details: Homo sapiens; 144 hours exposure, CellTiterGlo
Procedure: as §1, §2

[4] = test system: MZ-CRC-1 medullary thyroid carcinoma cells, harboring a mutated RET-M918T receptor; assay: In Vitro Cell Proliferation Assay (MZ-CRC-1); type: cell-based; details: Homo sapiens, 144 hours exposure, CellTiterGlo
Procedure: as §1, §2

[5] = test system: LC-2/ad Non Small Cell Lung Carcinoma cells, expressing the CCDC6-RET fusion gene product; assay: In Vitro Cell Proliferation Assay (LC-2/ad); type: cell-based; details: Homo sapiens, 144 hours exposure, CellTiterGlo
Procedure: as §1, §2

[6] = test system: MCF-7 breast carcinoma cells; assay: In Vitro Cell Proliferation Assay (MCF-7); type: cell-based; details: Homo sapiens, MCF7; 72 hours exposure, CellTiterGlo
Procedure: as §1, §2

| SMILES | solubility at 24 h [1] | IC50 [2] | IC50 [3] | IC50 [4] | IC50 [5] | IC50 [6] | solubility (in words) ([1]; neutral, physiological pH (pH 7), compared with the reference compound) |
| --- | --- | --- | --- | --- | --- | --- | --- |
| CCCN1CCN(Cc2ccc(NC(=O)Cc3cccc(C#Cc4cnc(NC)nc4-c4cc5c(n4C)CCNC5=O)c3)cc2C(F)(F)F)CC1 [Cmpd 179, 2-{3-[2-Methylamino-4-(1-methyl-4-oxo-4,5,6,7-tetrahydro-1H-pyrrolo[3,2-c]pyridin-2-yl)-pyrimidin-5-ylethynyl]-phenyl}-N-[4-(4-propyl-piperazin-1-ylmethyl)-3-trifluoromethyl-phenyl]-acetamide] | 1.2 µM (≈ 0.839 µg/mL) | 3240 nM | 0.017 µM | 0.038 µM |  |  |  |
| CNc1ncc(C#Cc2cccc(CC(=O)Nc3ccc(CN4CCN(C)CC4)c(C(F)(F)F)c3)c2)c(-c2cc3c(n2C)CCNC3=O)n1 [Cmpd 174, 2-{3-[2-Methylamino-4-(1-methyl-4-oxo-4,5,6,7-tetrahydro-1H-pyrrolo[3,2-c]pyridin-2-yl)-pyrimidin-5-ylethynyl]-phenyl}-N-[4-(4-methyl-piperazin-1-ylmethyl)-3-trifluoromethyl-phenyl]-acetamide] | 3.5 µM (≈ 2.35 µg/mL) | 1150 nM | 0.005 µM | 0.015 µM | 0.01 µM |  |  |
| CCN1CCN(Cc2ccc(NC(=O)Nc3cccc(C#Cc4cnccc4-c4cc5c(n4C)CCNC5=O)c3)cc2C(F)(F)F)CC1 [Cmpd 38, 1-[4-(4-Ethyl-piperazin-1-ylmethyl)-3-trifluoromethyl-phenyl]-3-{3-[4-(1-methyl-4-oxo-4,5,6,7-tetrahydro-1H-pyrrolo[3,2-c]pyridin-2-yl)-pyridin-3-ylethynyl]-phenyl}-urea] | 10.8 µM (≈ 7.08 µg/mL) | 1950 nM | 0.038 µM |  |  | 5040 nM |  |
| CCN1CCN(Cc2ccc(NC(=O)Cc3ccc(C#Cc4cnc(N)nc4-c4cc5c(n4C)CCNC5=O)cc3)cc2C(F)(F)F)CC1 [Cmpd 123, 2-{4-[2-Amino-4-(1-methyl-4-oxo-4,5,6,7-tetrahydro-1H-pyrrolo[3,2-c]pyridin-2-yl)-pyrimidin-5-ylethynyl]-phenyl}-N-[4-(4-ethyl-piperazin-1-ylmethyl)-3-trifluoromethyl-phenyl]-acetamide] | 25.1 µM (≈ 16.8 µg/mL) | 3900 nM | 0.06 µM |  |  | > 10000 nM |  |
| CN(C)[C@H]1CCN(Cc2ccc(NC(=O)Cc3cccc(C#Cc4cnc(N)nc4-c4cc5c(n4C)CCNC5=O)c3)cc2C(F)(F)F)C1 [Cmpd 150, 2-{3-[2-Amino-4-(1-methyl-4-oxo-4,5,6,7-tetrahydro-1H-pyrrolo[3,2-c]pyridin-2-yl)-pyrimidin-5-ylethynyl]-phenyl}-N-[4-((S)-3-dimethylamino-pyrrolidin-1-ylmethyl)-3-trifluoromethyl-phenyl]-acetamide] | 40.2 µM (≈ 27 µg/mL) | 1930 nM | 0.006 µM |  |  | 5640 nM |  |
| Cn1c(-c2nc(N)ncc2C#Cc2cccc(NC(=O)Nc3ccc(C(F)(F)F)cc3)c2)cc2c1CCNC2=O [Reference cmpd, 1-{3-[2-Amino-4-(1-methyl-4-oxo-4,5,6,7-tetrahydro-1H-pyrrolo[3,2-c]pyridin-2-yl)-pyrimidin-5-ylethynyl]-phenyl}-3-(4-trifluoromethyl-phenyl)-urea, reference compound] | < 1 µM | 2750 nM | 0.041 µM | 0.317 µM |  | 4540 nM | lack of solubility |
| CCN1CCN(Cc2ccc(NC(=O)N3CCc4ccc(C#Cc5cnc(N)nc5-c5cc6c(n5C)CCNC6=O)cc43)cc2C(F)(F)F)CC1 [Cmpd 44, 6-[2-Amino-4-(1-methyl-4-oxo-4,5,6,7-tetrahydro-1H-pyrrolo[3,2-c]pyridin-2-yl)-pyrimidin-5-ylethynyl]-2,3-dihydro-indole-1-carboxylic acid [4-(4-ethyl-piperazin-1-ylmethyl)-3-trifluoromethyl-phenyl]-amide] | 4.7 µM (≈ 3.28 µg/mL) | 1720 nM | 0.069 µM | 0.231 µM |  | 3480 nM |  |
| CCCN1CCN(Cc2ccc(NC(=O)Cc3cccc(C#Cc4cnc(N)nc4-c4cc5c(n4C)CCNC5=O)c3)cc2C(F)(F)F)CC1 [Cmpd 164, 2-{3-[2-Amino-4-(1-methyl-4-oxo-4,5,6,7-tetrahydro-1H-pyrrolo[3,2-c]pyridin-2-yl)-pyrimidin-5-ylethynyl]-phenyl}-N-[4-(4-propyl-piperazin-1-ylmethyl)-3-trifluoromethyl-phenyl]-acetamide] | 8.9 µM (≈ 6.09 µg/mL) | 2020 nM | 0.002 µM |  |  | 5620 nM |  |
| CCN1CCN(Cc2cc(NC(=O)Nc3cccc(C#Cc4cnc(N)nc4-c4cc5c(n4C)CCNC5=O)c3)ccc2C(F)(F)F)CC1 [Cmpd 22, 1-{3-[2-Amino-4-(1-methyl-4-oxo-4,5,6,7-tetrahydro-1H-pyrrolo[3,2-c]pyridin-2-yl)-pyrimidin-5-ylethynyl]-phenyl}-3-[3-(4-ethyl-piperazin-1-ylmethyl)-4-trifluoromethyl-phenyl]-urea] | 5.8 µM (≈ 3.9 µg/mL) | 1150 nM | 0.007 µM |  |  | 2810 nM |  |
| CN1CCCN(Cc2ccc(NC(=O)Cc3cccc(C#Cc4cnc(N)nc4-c4cc5c(n4C)CCNC5=O)c3)cc2C(F)(F)F)CC1 [Cmpd 149, 2-{3-[2-Amino-4-(1-methyl-4-oxo-4,5,6,7-tetrahydro-1H-pyrrolo[3,2-c]pyridin-2-yl)-pyrimidin-5-ylethynyl]-phenyl}-N-[4-(4-methyl-[1,4]diazepan-1-ylmethyl)-3-trifluoromethyl-phenyl]-acetamide] | 30.4 µM (≈ 20.4 µg/mL) | 1910 nM | 0.013 µM |  |  | 3720 nM |  |
| CCN1CCN(Cc2ccc(NC(=O)Cc3cncc(C#Cc4cnc(N)nc4-c4cc5c(n4C)CCNC5=O)c3)cc2C(F)(F)F)CC1 [Cmpd 122, 2-{5-[2-Amino-4-(1-methyl-4-oxo-4,5,6,7-tetrahydro-1H-pyrrolo[3,2-c]pyridin-2-yl)-pyrimidin-5-ylethynyl]-pyridin-3-yl}-N-[4-(4-ethyl-piperazin-1-ylmethyl)-3-trifluoromethyl-phenyl]-acetamide] | 9.4 µM (≈ 6.31 µg/mL) | 704 nM | 0.001 µM |  |  | 2690 nM |  |
| CCN1CCN(Cc2cc(NC(=O)Nc3cccc(C#Cc4cnc(N)nc4-c4cc5c(n4C)CCNC5=O)c3)cc(C(F)(F)F)c2)CC1 [Cmpd 29, 1-{3-[2-Amino-4-(1-methyl-4-oxo-4,5,6,7-tetrahydro-1H-pyrrolo[3,2-c]pyridin-2-yl)-pyrimidin-5-ylethynyl]-phenyl}-3-[3-(4-ethyl-piperazin-1-ylmethyl)-5-trifluoromethyl-phenyl]-urea] | 7.4 µM (≈ 4.97 µg/mL) | 2230 nM | 0.085 µM |  |  | 9160 nM |  |
| CCN1CCN(Cc2ccc(NC(=O)Cc3ccc(C#Cc4cnc(N)nc4-c4cc5c(n4C)CCNC5=O)s3)cc2C(F)(F)F)CC1 [Cmpd 129, 2-{5-[2-Amino-4-(1-methyl-4-oxo-4,5,6,7-tetrahydro-1H-pyrrolo[3,2-c]pyridin-2-yl)-pyrimidin-5-ylethynyl]-thiophen-2-yl}-N-[4-(4-ethyl-piperazin-1-ylmethyl)-3-trifluoromethyl-phenyl]-acetamide] | 26.4 µM (≈ 17.9 µg/mL) | 105 nM | 0.002 µM |  |  | 8180 nM |  |
| CCN1CCN(Cc2ccc(NC(=O)Nc3ccc(C#Cc4cnc(N)nc4-c4cc5c(n4C)CCNC5=O)cc3)cc2C(F)(F)F)CC1 [Cmpd 30, 1-{4-[2-Amino-4-(1-methyl-4-oxo-4,5,6,7-tetrahydro-1H-pyrrolo[3,2-c]pyridin-2-yl)-pyrimidin-5-ylethynyl]-phenyl}-3-[4-(4-ethyl-piperazin-1-ylmethyl)-3-trifluoromethyl-phenyl]-urea] | 1.7 µM (≈ 1.14 µg/mL) | 1000 nM | 0.008 µM |  |  | 2190 nM |  |
| Cn1nc(C(C)(C)C)cc1NC(=O)Cc1cccc(C#Cc2cnc(N)nc2-c2cc3c(n2C)CCNC3=O)c1 [Cmpd 105, 2-{3-[2-Amino-4-(1-methyl-4-oxo-4,5,6,7-tetrahydro-1H-pyrrolo[3,2-c]pyridin-2-yl)-pyrimidin-5-ylethynyl]-phenyl}-N-(5-tert-butyl-2-methyl-2H-pyrazol-3-yl)-acetamide] | 15.3 µM (≈ 8.21 µg/mL) | 2740 nM | 0.025 µM |  |  | > 10000 nM |  |

— patent US9604980B2, “Substituted pyrimidinyl and pyridinyl-pyrrolopyridinones, process for their preparation and their use as kinase inhibitors” (NERVIANO MEDICAL SCIENCES S.r.l, priority 2012, dated 2017)
